From patent US4401659A, “Muramyl-peptides fixed to peptide-polymers and pharmaceutical compositions containing them” (Agence National de Valorisation de la Recherche (ANVAR), priority 1979, dated 1983) come the findings set out here.

The test system of one data set is Klebsiella pneumoniae. Description: Anti-infectious activity with respect to Klebsiella, mice treated i.v. 24 hours before i.m. inoculation. The format is in vivo. To be noted: for Number of survivors at D + 8: controls 4 of 32; for Number of survivors at D + 5: controls 7 of 32; for Number of survivors at D + 3: controls 16 of 32; for Percentage of protection: difference in percentages of survivors versus control group. The source says: The testing procedure is described in the article of CHEDID L. and Col., Proc. Natl. Acad. Sci. USA, 1977, 74, 2089.
It was shown that a dose of about 10^4 Klebsiella pneumoniae, injected by the intramuscular route in mice, results in the progressive death of a considerable part, if not the whole, of the animals in the week following the inoculation. After eight days, the survival of the animals was definitely achieved.
The survival of groups of mice inoculated under the above-indicated conditions and treated by means of the products according to the invention, was recorded.
For these trials, hybrid mice (C57Bl/6 x AKR)F1 raised in the PASTEUR […], from strains derived from the C.N.R.S. breeding station at ORLEANS were used.
The infection by Klebsiella pneumoniae, a strain of the 2-capsular type, biotype d, was done from a culture of 16 hours in a medium for pneumococci (No. 53515, […] PASTEUR). The infecting dose was 1.5.10^4 Klebsiella; it was administered by the intramuscular route.
The administration of the tested product was carried out by the intravenous route in 0.2 ml of apyrogenic physiological solution, the controls receiving the solution alone. It was carried out 24 hours before the inoculation.
The percentage of protection indicated is the difference in the percentages of survivors of the treated group with respect to the control group.

The nature of data set [1]: Sensitisation trials: plantar injection in IFA or CFA, dermal injection three weeks later. As for the experimental part:
These trials were undertaken to study the possible immunogenic properties of the products according to the invention. At the same time, sensitisation tests with respect to various products were carried out.
The tests were carried out on guinea-pigs. The preparations shown in column 1 of the Table of the results were injected by the plantar route. They comprise 100 μg of the product tested incorporated in incomplete FREUND adjuvant (IFA) or in complete FREUND adjuvant (CFA).
Three weeks after this first injection, 50 μg of the products indicated in the upper portion of the Table of results were injected by the dermal route. Possible reactions were observed 48 hours later.

The next data set concerns Klebsiella. Description: Anti-infectious activity with respect to Klebsiella, young mice of 7 days, s.c. treatment and s.c. infection. In kind it is in vivo. Conditions: for Number of survivors at D + 8: controls 0 of 53; for Number of survivors at D + 5: controls 1 of 53; for Number of survivors at D + 3: controls 5 of 53. As for the experimental part:
In these trials, the product studied was administered, by the sub-cutaneousroute, 24 hours before the infecting test. For the latter, the infecting dose was 1.2.10^3 Klebsiella; it was also administered by the sub-cutaneous route.

[2] abbreviates: i.v. at D-1, 1 μg (weight of glycopeptide), 24 mice.
Setting [3] is: i.v. at D-1, 10 μg (weight of glycopeptide), 32 mice.
Where [4] appears, read: s.c. at D-1, 1 μg, 39 young mice.
Setting [5] is: s.c. at D-1, 10 μg, 75 young mice.

On to “multi-[poly-(N-acetyl-muramyl-D-alanyl-D-isoglutaminyl)-D,L-alanyl]-poly-L-lysine [MDP(D-D)(A--L)]”, for which, in the data set with Klebsiella pneumoniae (setting [2]), the “Number of survivors at D + 8” value was determined as 6, the “Number of survivors at D + 5” value came out at 7, the “Number of survivors at D + 3” value worked out at 15 and the Percentage of protection turned out to be 9%. Moreover, in the data set on Klebsiella pneumoniae (setting [3]), the “Number of survivors at D + 8” value worked out at 17, the “Number of survivors at D + 5” value worked out at 19, the “Number of survivors at D + 3” value is given as 26 and the Percentage of protection is listed as 38%. Also, the “adjuvant to specific immunity” value in data set [1] (administered with ovalbumin) is “is not adjuvant to specific immunity”. In addition, the “sensitivity reaction with respect to itself and to adjuvant agents like MDP” value in data set [1] (guinea-pigs) was “does not elicit a sensitivity reaction”. Besides, in the data set with Klebsiella (setting [4]), the “Number of survivors at D + 8” value was 3, the “Number of survivors at D + 5” value is on record as 6 and the “Number of survivors at D + 3” value amounted to 19. For the same substance, in the data set on Klebsiella (setting [5]), the “Number of survivors at D + 8” value turned out to be 18, the “Number of survivors at D + 5” value came to 28 and the “Number of survivors at D + 3” value is given as 50.
